Experimental data published in PubChem BioAssay (NCI).
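Where inhibition never reached the appropriate level, the endpoint shown equals the highest concentration tested. Otherwise, values were interpolated linearly from a five-concentration, 48-hour dose response in 96-well plates. TGI marks complete inhibition of growth.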

The molecules below were run on SR leukemia (assay: NCI-60 cell line screen, 48 h).
`CCOC(=O)/C=C/CC(C)(C)CCOC(C)=O` gave a TGI greater than 10 µM.
`c1csc(-c2ccc(-c3cccc4nsnc34)s2)c1` gave a TGI of 52.2 µM.
In the case of `Cc1n[nH]c(=O)n1/N=C/c1ccc(Cl)cc1`, the TGI is reported as greater than 100 µM.

The molecules below were run on SNB-75 CNS (assay: NCI-60 cell line screen, 48 h).
`CCOC(=O)/C=C/CC(C)(C)CCOC(C)=O` was tested, and the TGI was greater than 10 µM.
Molecule `c1csc(-c2ccc(-c3cccc4nsnc34)s2)c1` has a TGI greater than 100 µM.
Molecule `Cc1n[nH]c(=O)n1/N=C/c1ccc(Cl)cc1` has a TGI greater than 100 µM.
`N#Cc1c(-c2ccccc2)/c(=C\Nc2cccc(C(F)(F)F)c2)c(=O)n2c1nc1ccccc12` showed a TGI greater than 100 µM.

These molecules were tested on HT29 colon (assay: NCI-60 cell line screen, 48 h).
Work on `CCOC(=O)/C=C/CC(C)(C)CCOC(C)=O` yielded a TGI greater than 10 µM.

The molecules below were run on OVCAR-8 ovarian (assay: NCI-60 cell line screen, 48 h).
For `CCOC(=O)/C=C/CC(C)(C)CCOC(C)=O`, the TGI was greater than 10 µM.
`c1csc(-c2ccc(-c3cccc4nsnc34)s2)c1` was tested, and the TGI was greater than 100 µM.
`Cc1n[nH]c(=O)n1/N=C/c1ccc(Cl)cc1` was tested, and the TGI was greater than 100 µM.
Work on `N#Cc1c(-c2ccccc2)/c(=C\Nc2cccc(C(F)(F)F)c2)c(=O)n2c1nc1ccccc12` yielded a TGI of 51.5 µM.

What follows are molecules tested on HCC-2998 colon (assay: NCI-60 cell line screen, 48 h).
Molecule `CCOC(=O)/C=C/CC(C)(C)CCOC(C)=O` has a TGI greater than 10 µM.
For `c1csc(-c2ccc(-c3cccc4nsnc34)s2)c1`, the TGI was greater than 100 µM.
With `Cc1n[nH]c(=O)n1/N=C/c1ccc(Cl)cc1` the TGI was greater than 100 µM.
Work on `N#Cc1c(-c2ccccc2)/c(=C\Nc2cccc(C(F)(F)F)c2)c(=O)n2c1nc1ccccc12` yielded a TGI greater than 100 µM.

The molecules below were run on SF-295 CNS (assay: NCI-60 cell line screen, 48 h).
`CCOC(=O)/C=C/CC(C)(C)CCOC(C)=O` was tested, and the TGI was greater than 10 µM.
For `c1csc(-c2ccc(-c3cccc4nsnc34)s2)c1`, the TGI was greater than 100 µM.
Work on `Cc1n[nH]c(=O)n1/N=C/c1ccc(Cl)cc1` yielded a TGI greater than 100 µM.
`N#Cc1c(-c2ccccc2)/c(=C\Nc2cccc(C(F)(F)F)c2)c(=O)n2c1nc1ccccc12` gave a TGI greater than 100 µM.

These molecules were tested on DU-145 prostate (assay: NCI-60 cell line screen, 48 h).
`CCOC(=O)/C=C/CC(C)(C)CCOC(C)=O` showed a TGI greater than 10 µM.
With `c1csc(-c2ccc(-c3cccc4nsnc34)s2)c1` the TGI was greater than 100 µM.
With `Cc1n[nH]c(=O)n1/N=C/c1ccc(Cl)cc1` the TGI was greater than 100 µM.

What follows are molecules tested on K-562 leukemia (assay: NCI-60 cell line screen, 48 h).
With `CCOC(=O)/C=C/CC(C)(C)CCOC(C)=O` the TGI was greater than 10 µM.
Work on `c1csc(-c2ccc(-c3cccc4nsnc34)s2)c1` yielded a TGI greater than 100 µM.
`Cc1n[nH]c(=O)n1/N=C/c1ccc(Cl)cc1` gave a TGI greater than 100 µM.

What follows are molecules tested on NCI-H226 lung (assay: NCI-60 cell line screen, 48 h).
`CCOC(=O)/C=C/CC(C)(C)CCOC(C)=O` gave a TGI greater than 10 µM.
For `c1csc(-c2ccc(-c3cccc4nsnc34)s2)c1`, the TGI was greater than 100 µM.
`N#Cc1c(-c2ccccc2)/c(=C\Nc2cccc(C(F)(F)F)c2)c(=O)n2c1nc1ccccc12` showed a TGI of 80.9 µM.

The molecules below were run on EKVX NSCLC (assay: NCI-60 cell line screen, 48 h).
Molecule `c1csc(-c2ccc(-c3cccc4nsnc34)s2)c1` has a TGI greater than 100 µM.
`Cc1n[nH]c(=O)n1/N=C/c1ccc(Cl)cc1` was tested, and the TGI was 72.5 µM.
Work on `N#Cc1c(-c2ccccc2)/c(=C\Nc2cccc(C(F)(F)F)c2)c(=O)n2c1nc1ccccc12` yielded a TGI of 74.2 µM.

Each molecule was assayed on ACHN renal (assay: NCI-60 cell line screen, 48 h).
For `CCOC(=O)/C=C/CC(C)(C)CCOC(C)=O`, the TGI was greater than 10 µM.
For `c1csc(-c2ccc(-c3cccc4nsnc34)s2)c1`, the TGI was greater than 100 µM.
For `Cc1n[nH]c(=O)n1/N=C/c1ccc(Cl)cc1`, the TGI was greater than 100 µM.
With `N#Cc1c(-c2ccccc2)/c(=C\Nc2cccc(C(F)(F)F)c2)c(=O)n2c1nc1ccccc12` the TGI was greater than 100 µM.

What follows are molecules tested on CAKI-1 renal (assay: NCI-60 cell line screen, 48 h).
Work on `CCOC(=O)/C=C/CC(C)(C)CCOC(C)=O` yielded a TGI greater than 10 µM.
Work on `c1csc(-c2ccc(-c3cccc4nsnc34)s2)c1` yielded a TGI greater than 100 µM.
Work on `Cc1n[nH]c(=O)n1/N=C/c1ccc(Cl)cc1` yielded a TGI greater than 100 µM.
Molecule `N#Cc1c(-c2ccccc2)/c(=C\Nc2cccc(C(F)(F)F)c2)c(=O)n2c1nc1ccccc12` has a TGI of 14.2 µM.

Each molecule was assayed on OVCAR-4 ovarian (assay: NCI-60 cell line screen, 48 h).
In the case of `CCOC(=O)/C=C/CC(C)(C)CCOC(C)=O`, the TGI is reported as greater than 10 µM.
Work on `c1csc(-c2ccc(-c3cccc4nsnc34)s2)c1` yielded a TGI greater than 100 µM.
With `Cc1n[nH]c(=O)n1/N=C/c1ccc(Cl)cc1` the TGI was greater than 100 µM.
Molecule `N#Cc1c(-c2ccccc2)/c(=C\Nc2cccc(C(F)(F)F)c2)c(=O)n2c1nc1ccccc12` has a TGI greater than 100 µM.

What follows are molecules tested on UO-31 renal (assay: NCI-60 cell line screen, 48 h).
With `CCOC(=O)/C=C/CC(C)(C)CCOC(C)=O` the TGI was greater than 10 µM.
`c1csc(-c2ccc(-c3cccc4nsnc34)s2)c1` showed a TGI greater than 100 µM.
Work on `Cc1n[nH]c(=O)n1/N=C/c1ccc(Cl)cc1` yielded a TGI greater than 100 µM.
Work on `N#Cc1c(-c2ccccc2)/c(=C\Nc2cccc(C(F)(F)F)c2)c(=O)n2c1nc1ccccc12` yielded a TGI of 22.1 µM.

Each molecule was assayed on UACC-62 melanoma (assay: NCI-60 cell line screen, 48 h).
`CCOC(=O)/C=C/CC(C)(C)CCOC(C)=O` gave a TGI greater than 10 µM.
`c1csc(-c2ccc(-c3cccc4nsnc34)s2)c1` showed a TGI greater than 100 µM.
In the case of `Cc1n[nH]c(=O)n1/N=C/c1ccc(Cl)cc1`, the TGI is reported as greater than 100 µM.

The molecules below were run on MOLT-4 leukemia (assay: NCI-60 cell line screen, 48 h).
`CCOC(=O)/C=C/CC(C)(C)CCOC(C)=O` was tested, and the TGI was greater than 10 µM.
`c1csc(-c2ccc(-c3cccc4nsnc34)s2)c1` was tested, and the TGI was 39.2 µM.
With `Cc1n[nH]c(=O)n1/N=C/c1ccc(Cl)cc1` the TGI was greater than 100 µM.

What follows are molecules tested on LOX IMVI melanoma (assay: NCI-60 cell line screen, 48 h).
Work on `CCOC(=O)/C=C/CC(C)(C)CCOC(C)=O` yielded a TGI greater than 10 µM.
Molecule `c1csc(-c2ccc(-c3cccc4nsnc34)s2)c1` has a TGI greater than 100 µM.
With `N#Cc1c(-c2ccccc2)/c(=C\Nc2cccc(C(F)(F)F)c2)c(=O)n2c1nc1ccccc12` the TGI was greater than 100 µM.

These molecules were tested on SW-620 colon (assay: NCI-60 cell line screen, 48 h).
Molecule `CCOC(=O)/C=C/CC(C)(C)CCOC(C)=O` has a TGI greater than 10 µM.
Molecule `c1csc(-c2ccc(-c3cccc4nsnc34)s2)c1` has a TGI greater than 100 µM.
For `Cc1n[nH]c(=O)n1/N=C/c1ccc(Cl)cc1`, the TGI was greater than 100 µM.
`N#Cc1c(-c2ccccc2)/c(=C\Nc2cccc(C(F)(F)F)c2)c(=O)n2c1nc1ccccc12` showed a TGI greater than 100 µM.

Each molecule was assayed on HOP-62 NSCLC (assay: NCI-60 cell line screen, 48 h).
Molecule `CCOC(=O)/C=C/CC(C)(C)CCOC(C)=O` has a TGI greater than 10 µM.
`c1csc(-c2ccc(-c3cccc4nsnc34)s2)c1` was tested, and the TGI was greater than 100 µM.
Work on `Cc1n[nH]c(=O)n1/N=C/c1ccc(Cl)cc1` yielded a TGI greater than 100 µM.
With `N#Cc1c(-c2ccccc2)/c(=C\Nc2cccc(C(F)(F)F)c2)c(=O)n2c1nc1ccccc12` the TGI was greater than 100 µM.

What follows are molecules tested on T-47D breast (assay: NCI-60 cell line screen, 48 h).
In the case of `CCOC(=O)/C=C/CC(C)(C)CCOC(C)=O`, the TGI is reported as greater than 10 µM.
For `c1csc(-c2ccc(-c3cccc4nsnc34)s2)c1`, the TGI was greater than 100 µM.
In the case of `Cc1n[nH]c(=O)n1/N=C/c1ccc(Cl)cc1`, the TGI is reported as greater than 100 µM.
For `N#Cc1c(-c2ccccc2)/c(=C\Nc2cccc(C(F)(F)F)c2)c(=O)n2c1nc1ccccc12`, the TGI was greater than 100 µM.

Each molecule was assayed on MALME-3M melanoma (assay: NCI-60 cell line screen, 48 h).
`c1csc(-c2ccc(-c3cccc4nsnc34)s2)c1` showed a TGI greater than 100 µM.
Molecule `N#Cc1c(-c2ccccc2)/c(=C\Nc2cccc(C(F)(F)F)c2)c(=O)n2c1nc1ccccc12` has a TGI greater than 100 µM.

What follows are molecules tested on M14 melanoma (assay: NCI-60 cell line screen, 48 h).
`CCOC(=O)/C=C/CC(C)(C)CCOC(C)=O` showed a TGI greater than 10 µM.
`c1csc(-c2ccc(-c3cccc4nsnc34)s2)c1` showed a TGI greater than 100 µM.
With `Cc1n[nH]c(=O)n1/N=C/c1ccc(Cl)cc1` the TGI was greater than 100 µM.
Work on `N#Cc1c(-c2ccccc2)/c(=C\Nc2cccc(C(F)(F)F)c2)c(=O)n2c1nc1ccccc12` yielded a TGI greater than 100 µM.

These molecules were tested on U251 CNS (assay: NCI-60 cell line screen, 48 h).
`CCOC(=O)/C=C/CC(C)(C)CCOC(C)=O` showed a TGI greater than 10 µM.
With `c1csc(-c2ccc(-c3cccc4nsnc34)s2)c1` the TGI was greater than 100 µM.
`N#Cc1c(-c2ccccc2)/c(=C\Nc2cccc(C(F)(F)F)c2)c(=O)n2c1nc1ccccc12` gave a TGI greater than 100 µM.

What follows are molecules tested on NCI-H460 lung (assay: NCI-60 cell line screen, 48 h).
Work on `CCOC(=O)/C=C/CC(C)(C)CCOC(C)=O` yielded a TGI greater than 10 µM.
With `c1csc(-c2ccc(-c3cccc4nsnc34)s2)c1` the TGI was greater than 100 µM.
Molecule `Cc1n[nH]c(=O)n1/N=C/c1ccc(Cl)cc1` has a TGI greater than 100 µM.
Molecule `N#Cc1c(-c2ccccc2)/c(=C\Nc2cccc(C(F)(F)F)c2)c(=O)n2c1nc1ccccc12` has a TGI greater than 100 µM.

The molecules below were run on COLO 205 colon (assay: NCI-60 cell line screen, 48 h).
In the case of `CCOC(=O)/C=C/CC(C)(C)CCOC(C)=O`, the TGI is reported as greater than 10 µM.
Work on `c1csc(-c2ccc(-c3cccc4nsnc34)s2)c1` yielded a TGI greater than 100 µM.
Molecule `Cc1n[nH]c(=O)n1/N=C/c1ccc(Cl)cc1` has a TGI greater than 100 µM.
Work on `N#Cc1c(-c2ccccc2)/c(=C\Nc2cccc(C(F)(F)F)c2)c(=O)n2c1nc1ccccc12` yielded a TGI greater than 100 µM.

The molecules below were run on HCT-15 colon (assay: NCI-60 cell line screen, 48 h).
Molecule `CCOC(=O)/C=C/CC(C)(C)CCOC(C)=O` has a TGI greater than 10 µM.
Work on `c1csc(-c2ccc(-c3cccc4nsnc34)s2)c1` yielded a TGI greater than 100 µM.
Molecule `Cc1n[nH]c(=O)n1/N=C/c1ccc(Cl)cc1` has a TGI greater than 100 µM.
Work on `N#Cc1c(-c2ccccc2)/c(=C\Nc2cccc(C(F)(F)F)c2)c(=O)n2c1nc1ccccc12` yielded a TGI greater than 100 µM.

The molecules below were run on NCI-H23 lung (assay: NCI-60 cell line screen, 48 h).
In the case of `CCOC(=O)/C=C/CC(C)(C)CCOC(C)=O`, the TGI is reported as greater than 10 µM.
`c1csc(-c2ccc(-c3cccc4nsnc34)s2)c1` gave a TGI greater than 100 µM.
In the case of `Cc1n[nH]c(=O)n1/N=C/c1ccc(Cl)cc1`, the TGI is reported as greater than 100 µM.
In the case of `N#Cc1c(-c2ccccc2)/c(=C\Nc2cccc(C(F)(F)F)c2)c(=O)n2c1nc1ccccc12`, the TGI is reported as greater than 100 µM.

These molecules were tested on UACC-257 melanoma (assay: NCI-60 cell line screen, 48 h).
For `CCOC(=O)/C=C/CC(C)(C)CCOC(C)=O`, the TGI was greater than 10 µM.
Work on `c1csc(-c2ccc(-c3cccc4nsnc34)s2)c1` yielded a TGI greater than 100 µM.
Work on `Cc1n[nH]c(=O)n1/N=C/c1ccc(Cl)cc1` yielded a TGI greater than 100 µM.
`N#Cc1c(-c2ccccc2)/c(=C\Nc2cccc(C(F)(F)F)c2)c(=O)n2c1nc1ccccc12` was tested, and the TGI was greater than 100 µM.

Each molecule was assayed on SK-MEL-28 melanoma (assay: NCI-60 cell line screen, 48 h).
`CCOC(=O)/C=C/CC(C)(C)CCOC(C)=O` was tested, and the TGI was greater than 10 µM.
For `c1csc(-c2ccc(-c3cccc4nsnc34)s2)c1`, the TGI was greater than 100 µM.
Work on `Cc1n[nH]c(=O)n1/N=C/c1ccc(Cl)cc1` yielded a TGI greater than 100 µM.
Molecule `N#Cc1c(-c2ccccc2)/c(=C\Nc2cccc(C(F)(F)F)c2)c(=O)n2c1nc1ccccc12` has a TGI greater than 100 µM.
